Where two headings read alike, the source gives them in different places.
Legend:
[1] = tested on: Pseudoalteromonas ulvae (TC14); assay: Anti-adhesion test, strain TC14; type: cell-based; settings: Pseudoalteromonas ulvae; for activity at 200 µM: 15 h; for EC50: read-out: EC50 (effective concentration to inhibit 50% of the adhesion)
Experimental: (§1) Bacterial strains were grown on Väätänen nine-salts solution (VNSS). When the stationary phase was reached, the bacterial suspension was centrifuged. Cells were then diluted in sterile artificial sea water (ASW) and introduced in microtiter plates (sterile black PS; Nunc, Fisher Scientific, France) with the tested compound (at eight concentrations in three replicates) in the presence of three controls: (i) non-specific staining control, (ii) adhesion control, and (iii) positive control. The maximum percentage of solvent (DMSO 2%) used to dilute the tested compound was also tested in triplicate as additional control. After incubation during an optimized adhesion time (moderately 15 h), non-adhered bacteria were eliminated and adhered cells were quantified after SYTO 61 (1 μM) staining. A percentage of inhibition was calculated per well. A sigmoid dose-response curve was obtained by plotting the percentage of inhibition as a function of the log of tested compound concentration, after mean (n=3) and standard deviation (SD) calculation per triplicate for each concentration. EC50 values were then calculated for each compound.
Pseudoalteromonas ulvae (TC14) was isolated in June 2010 in the Military Harbor of Toulon (Mediterranean Sea, France) as described in F. Brian-Jaisson, A. Ortalo-Magné, L. Guentas-Dombrowsky, F. Armougom, Y. Blache, M. Molmeret, Microb. Ecol., 2014, 68, 94-110.

[2] = tested on: Pseudoalteromonas lipolytica (TC8); assay: Anti-adhesion test, strain TC8; type: cell-based; settings: for activity at 200 µM: 15 h, read-out: % of adhesion at 200 μM, TC8; for EC50: read-out: EC50 (effective concentration to inhibit 50% of the adhesion), TC8
Experimental: (§2) The anti-adhesion bioassays and toxicity tests are adapted from those disclosed in M. Camps, J.-F. Briand, L. Guentas-Dombrowsky, G. Culioli, A. Bazire and Y. Blache, Mar. Poll.
as §1

[3] = tested on: Paracoccus sp. (4M6); assay: Anti-adhesion test, strain 4M6; type: cell-based; settings: for activity at 200 µM: 15 h, read-out: % of adhesion at 200 μM, 4M6; for EC50: read-out: EC50 (effective concentration to inhibit 50% of the adhesion), 4M6
Experimental: as §2, §1

[4] = Gravimetry (weight loss), corrosion inhibition; settings: mild steel in 1N HCl
Experimental: The corrosion rates were determined by electrochemical impedance spectroscopy measurements and gravimetry.
Weight loss measurements were performed on 2.5×2.0×0.1 cm rectangular mild steel coupons. The mild steel coupons were immersed into non-de-aerated HCl 1N solution in absence and presence of different concentrations of compounds of general formula (I). After the elapsed time, the coupons were taken out, washed, dried and weighed accurately. Experiments were duplicated.
Weight loss experiments were done to confirm the corrosion inhibitive properties of AS164.
The inhibition efficiency, IE (%), was estimated from the weight loss experiments using the following equation:
[formula] wherein CR^o and CR are respectively the corrosion rate in the absence and presence of AS164.

Row | Compound | activity at 200 µM [1] [%] | activity at 200 µM ([2]; Pseudoalteromonas lipolytica) [%] | activity at 200 µM ([3]; Paracoccus) [%] | IE % ([4]; 0.1 ppm) [%] | IE % ([4]; 0.3 ppm) [%] | IE % ([4]; 0.5 ppm) [%] | IE % ([4]; 2 ppm) [%] | IE % ([4]; 10 ppm) [%] | EC50 [1] [µM] | EC50 ([2]; Pseudoalteromonas lipolytica) [µM] | EC50 ([3]; Paracoccus) [µM] | EC50 ([2]; strain TC8) [µM] | EC50 ([3]; strain 4M6) [µM]
1 | CN(C)CCOc1ccc(CCn2cc(CCCc3cn(CCc4ccc(OCCN(C)C)c(Br)c4)nn3)nn2)cc1Br [AS158] | 55.8 ± 3.8 | 57 ± 2.2 | 51.5 ± 3 | 53.41 | 87.00 | 91.72 | 95.98 | 97.17 |  |  |  |  | 
2 | CN(C)CCOc1ccc(CCn2cc(CCCCc3cn(CCc4ccc(OCCN(C)C)c(Br)c4)nn3)nn2)cc1Br [AS159, 2-(4-(2-(4-(4-(1-(4-(2-(dimethylamino)ethoxy)-3-bromophenethyl)-1H-1,2,3-triazol-4-yl)butyl)-1H-1,2,3-triazol-1-yl)ethyl)-2-bromophenoxy)-N,N-dimethylethanamine] | 61.5 ± 1 | 58.4 ± 4.3 | 57.4 ± 1.6 | 39.96 | 89.62 | 91.95 | 95.63 | 97.30 |  |  |  |  | 
3 | CN(C)CCOc1ccc(CCn2cc(CCCCCCc3cn(CCc4ccc(OCCN(C)C)c(Br)c4)nn3)nn2)cc1Br [AS160, 2-(4-(2-(4-(6-(1-(4-(2-(dimethylamino)ethoxy)-3-bromophenethyl)-1H-1,2,3-triazol-4-yl)hexyl)-1H-1,2,3-triazol-1-yl)ethyl)-2-bromophenoxy)-N,N-dimethylethanamine] | 67.4 ± 4 | 54.3 ± 10.8 | 59.5 ± 2.2 | 71.40 | 92.14 | 92.66 | 96.06 | 97.03 |  |  |  |  | 
4 | CN(C)CCOc1ccc(CCn2cc(-c3cccc(-c4cn(CCc5ccc(OCCN(C)C)c(Br)c5)nn4)c3)nn2)cc1Br [AS161, 2-(4-(2-(4-(3-(1-(4-(2-(dimethylamino)ethoxy)-3-bromophenethyl)-1H-1,2,3-triazol-4-yl)phenyl)-1H-1,2,3-triazol-1-yl)ethyl)-2-bromophenoxy)-N,N-dimethylethanamine] |  |  |  | 86.75 | 86.21 | 94.07 | 97.10 | 98.33 |  |  |  |  | 
5 | CN(C)CCCOc1ccc(CCn2cc(CCCc3cn(CCc4ccc(OCCCN(C)C)c(Br)c4)nn3)nn2)cc1Br [AS168, 3-(4-(2-(4-(3-(1-(4-(3-(dimethylamino)propoxy)-3-bromophenethyl)-1H-1,2,3-triazol-4-yl)propyl)-1H-1,2,3-triazol-1-yl)ethyl)-2-bromophenoxy)-N,N-dimethylpropan-1-amine] | 53.8 ± 5.9 | 59.9 ± 6.4 | 77.1 ± 2.4 |  |  |  |  |  |  |  |  |  | 
6 | CN(C)CCCOc1ccc(CCn2cc(-c3cccc(-c4cn(CCc5ccc(OCCCN(C)C)c(Br)c5)nn4)c3)nn2)cc1Br [AS171, 3-(4-(2-(4-(3-(1-(4-(3-(dimethylamino)propoxy)-3-bromophenethyl)-1H-1,2,3-triazol-4-yl)phenyl)-1H-1,2,3-triazol-1-yl)ethyl)-2-bromophenoxy)-N,N-dimethylpropan-1-amine] |  |  |  | 53.82 | 86.91 | 91.72 | 97.25 | 98.51 |  |  |  |  | 
7 | CN(C)CCCOc1ccc(CCn2cc(COCc3cn(CCc4ccc(OCCCN(C)C)c(Br)c4)nn3)nn2)cc1Br [AS173, 3-(4-(2-(4-(((1-(4-(3-(dimethylamino)propoxy)-3-bromophenethyl)-1H-1,2,3-triazol-4-yl)methoxy)methyl)-1H-1,2,3-triazol-1-yl)ethyl)-2-bromophenoxy)-N,N-dimethylpropan-1-amine] | 41.7 ± 1.6 | 51.6 ± 1 | 53.7 ± 4 | 46.78 | 86.70 | 92.47 | 95.77 | 97.95 | 122 ± 59.1 |  |  |  | 
8 | CN(C)CCCOc1ccc(CCn2cc(CNCc3cn(CCc4ccc(OCCCN(C)C)c(Br)c4)nn3)nn2)cc1Br [AS174] | 45 ± 0.8 | 55.4 ± 0.4 | 56.3 ± 2.4 | 53.41 | 87.00 | 91.72 | 95.98 | 97.17 |  | 185 ± 16.2 |  |  | 
9 | COc1ccc(CCn2cc(CCCCc3cn(CCc4ccc(OC)c(Br)c4)nn3)nn2)cc1Br [NT3, 1-(3-bromo-4-methoxyphenethyl)-4-(4-(1-(3-bromo-4-methoxyphenethyl)-1H-1,2,3-triazol-4-yl)butyl)-1H-1,2,3-triazole] | 53.3 ± 6.3 | 56.9 ± 1.7 | 50.9 ± 0.3 |  |  |  |  |  |  |  |  |  | 
10 | COc1ccc(CCn2cc(COCc3cn(CCc4ccc(OC)c(Br)c4)nn3)nn2)cc1Br [NT6, 4-(((1-(3-bromo-4-methoxyphenethyl)-1H-1,2,3-triazol-4-yl)methoxy)methyl)-1-(3-bromo-4-methoxyphenethyl)-1H-1,2,3-triazole] | 38.4 ± 7.4 | 42.7 ± 6.5 | 44.9 ± 3.1 |  |  |  |  |  | 160 ± 33.5 | 181 ± 21.3 | 164 ± 6.3 |  | 
11 | COc1ccc(CCn2cc(CNCc3cn(CCc4ccc(OC)c(Br)c4)nn3)nn2)cc1Br [NT7, bis((1-(3-bromo-4-methoxyphenethyl)-1H-1,2,3-triazol-4-yl)methyl)amine] | 37.4 ± 0.1 | 48.2 ± 2.1 | 46.3 ± 2.7 |  |  |  |  |  | 138 ± 8.7 | 188 ± 3 | 194 ± 8 |  | 
12 | COc1ccc(CCn2cc(CCCc3cn(CCc4ccc(OC)c(Br)c4)nn3)nn2)cc1Br [NT10, 1-(3-bromo-4-methoxyphenethyl)-4-(3-(1-(3-bromo-4-methoxyphenethyl)-1H-1,2,3-triazol-4-yl)propyl)-1H-1,2,3-triazole] | 50.4 ± 2.2 | 50 ± 4.9 | 49.2 ± 0.8 |  |  |  |  |  |  |  | 182 ± 15.2 |  | 
13 | Oc1ccc(CCn2cc(CCCc3cn(CCc4ccc(O)c(Br)c4)nn3)nn2)cc1Br [NT21, 4-(2-(4-(3-(1-(3-bromo-4-hydroxyphenethyl)-1H-1,2,3-triazol-4-yl)propyl)-1H-1,2,3-triazol-1-yl)ethyl)-2-bromophenol] | 53 ± 4 | 63 | 83.4 ± 3.9 |  |  |  |  |  |  |  |  |  | 
14 | Oc1ccc(CCn2cc(CCCCc3cn(CCc4ccc(O)c(Br)c4)nn3)nn2)cc1Br [NT22, 4-(2-(4-(4-(1-(3-bromo-4-hydroxyphenethyl)-1H-1,2,3-triazol-4-yl)butyl)-1H-1,2,3-triazol-1-yl)ethyl)-2-bromophenol] | 54.4 ± 1.7 | 85.6 ± 2.1 | 52.4 ± 2.3 |  |  |  |  |  |  |  |  |  | 
15 | Oc1ccc(CCn2cc(-c3cccc(-c4cn(CCc5ccc(O)c(Br)c5)nn4)c3)nn2)cc1Br [NT24] | 56.7 ± 1.3 | 66.5 ± 11.6 | 61.5 ± 4.2 |  |  |  |  |  |  |  |  |  | 
16 | Oc1ccc(CCn2cc(COCc3cn(CCc4ccc(O)c(Br)c4)nn3)nn2)cc1Br [NT26] | 40.2 ± 3.3 | 50.3 ± 5.79 | 47.8 ± 0.1 |  |  |  |  |  | 127 ± 27.5 | 195 ± 10.7 | 198 ± 4.1 |  | 
17 | CN(C)CCOc1ccc(CCn2cc(-c3ccc(-c4cn(CCc5ccc(OCCN(C)C)cc5)nn4)cc3)nn2)cc1 [SA11, 2-(4-(2-(4-(4-(1-(4-(2-(dimethylamino)ethoxy)phenethyl)-1H-1,2,3-triazol-4-yl)phenyl)-1H-1,2,3-triazol-1-yl)ethyl)phenoxy)-N,N-dimethylethanamine] |  |  |  | 90.50 | 93.32 | 95.49 | 96.95 | 97.11 |  |  |  |  | 
18 | CN(C)CCOc1ccc(CCCn2cc(-c3ccc(-c4cn(CCCc5ccc(OCCN(C)C)c(Br)c5)nn4)cc3)nn2)cc1Br [SA31, 2-(4-(3-(4-(4-(1-(3-(4-(2-(dimethylamino)ethoxy)-3-bromophenyl)propyl)-1H-1,2,3-triazol-4-yl)phenyl)-1H-1,2,3-triazol-1-yl)propyl)-2-bromophenoxy)-N,N-dimethylethanamine] |  |  |  | 80.79 | 93.00 | 95.44 | 96.17 | 96.56 |  |  |  |  | 
19 | tributyltin oxide [TBTO, reference compound] |  |  |  |  |  |  |  |  |  |  |  | 7 ± 3 | 4 ± 3
